Results as given in patent US8053627B2, “Methods for treating demyelination disorders” (University of Chicago, priority 2005, dated 2011).

Tests used:
[1] = tested on: EAE demyelinating lesions; assay: EAE, CNS delivery of INF-γ at the recovery stage (doxycycline withdrawn at PID7); assay type: in vivo, mice
From the text: Double transgenic mice that allow for temporally regulated delivery of INF-γ to the CNS (Lin et al., J Neurosci 24:10074-10083 (2004)) were used to assess the role of INF-γ in the pathogenesis of EAE. GFAP/tTA; TRE/IFN-γ double transgenic mice, as described in Example 1 were used to determine the effect of INF-γ on the demyelination caused by EAE. All mice were fed doxycycline from the day of conception to repress the expression of INF-γ, and were immunized with myelin oligodendrocyte protein (MOG35-55) to induce EAE. AT day 7 postimmunization (PID7), doxycycline was withdrawn from the experimental group (PID7 DOX−).
The level of INF-γ was determined in the control (DOX+) and the PID7 DOX− mice using an ELISA immunoassay as described in Example 1, and the severity of the disease was assessed as a function of a clinical score. Clinical severity scores were recorded daily according to a 0-5 point scale, where 0=healthy, 1=flaccid tail, 2=ataxia and/or paresis of hind limbs, 3=paralysis of hind limbs and/or paresis of forelimbs, 4=tetraparalysis, and 5=moribund or dead.
The spinal cord from DOX+ and DOX− animals with EAE was immunostained for MBP, and the remyelination of axons was evaluated. The number of oligodendrocytes was determined in the spine from DOX+ and DOX− mice as the number of CC1 positive cells. Axonal damage was evaluted by immunostaining of non-phosphorylated neurofilament-H. Antibodies to non-phosphorylated neurofilament-H were SM132 diluted to 1:1000 and obtained from Sternberger Monoclonals.
INF-γ is known to induce MHC antigens and activate macrophages and T lymphocytes. The inflammatory effect of INF-γ was studied in the CNS during remyelination by determining the infiltration of T cells and macrophages, and measuring the expression of MHC-1, TNF-a, IL-2, IL-12 and IL-17. Immunohistochemistry was performed in tissues from the DOX+ and DOX− mice with EAE as described in Example 4. Experimental procedures were followed as described in the examples above.

rat oligodendrocytes = assay: Cultured rat oligodendrocytes treated with recombinant rat IFN-γ; assay type: cell-based
Protocol: To test whether apoptosis of oligodendrocytes that is induced by INF-γ affects ER stress, the effect on the morphology, the degree of apoptosis and the expression of ER markers was studied in a culture of oligodendrocyte precursor cells (OPC). Oligodendrocyte progenitors were cultured from neonatal rat brains (Baerwald, et al. (1998) J. Neurosci Res. 52: 230-239). A mixed glial culture was grown in flasks in medium containing 10% fetal bovine serum (FBS), and when the astrocyte layer became confluent (10-14 days), oligodendrocyte progenitors were separated from astrocytes and microglia using an orbital shaker. Cells, greater than 95% of which were A2B5 positive, GFAP negative and CD11b negative, were cultured in 0.5% FBS containing medium, which also contained PDGF (10 ng/ml) and FGF (5 ng/ml) (both from R&D Systems, Minneapolis, Minn.). Then cells were switched to 0.5% FBS medium without PDGF and FGF for differentiation. After 5 days in the differentiating medium, approximately 40% of cells were positive for myelin protein 2′3′-cyclic nucleotide 3′-phosphodiestaerase (CNP). 70 U/ml recombinant rat IFN-γ (Calbiochem, La Jolla, Calif.) was added to the cells that had been allowed to differentiation for 5 days. […] To examine the oligodendroglial response to general ER stress-inducing agents, progenitor cells that had been cultured in differentaition medium for 5 or 7 days were treated with 2 μg/ml of tunicamycin (Sigma Aldrich) for 6 hours.
The level of apoptosis of the OPC cells was determined by double staining CNP (1:200; Sternberger Monoclonals, Lutherville, Md.) and TUNEL using the ApopTag Kit (Serologicals Corp., Norcross, Calif.) and following the manufacturer's instructions. Apoptosis was also evaluated by measuring the activity of caspase-3 in oligodendrocyte lysates using the Fluorimetric Caspase 3 Assay Kit (Sigma, St. Louis, Mo.), according to the manufacturer's instructions.
To determine whether INF-γ affects ER function, the RNA expression of ER markers binding immunoglobulin protein (BIP), CAAT enhancer binding protein homologous protein (CHOP), and caspase 12 was determined using real time PCR. RNA was isolated from cultured cells and mice brain using Trizol reagent (Invitrogen, Carlsbad, Calif.) and treated with DNAaseI (Invitrogen) to eliminate genomic DNA. Reverse transcription was performed using Superscript First Strand Synthesis System for RT-PCR kit (Invitrogen). Real-time PCR was performed with iQ Supermix (Bio-Rad, Hercules, Calif.) on a Bio-Rad iQ real-time PCR detection system (Bio-Rad). The following primers and probes (Integrated DNA Technologies Inc., Coralville, Iowa) for real-time PCR were used: mouse CHOP sense primer […] (SEQ ID NO: 34); mouse CHOP antisense primer […] (SEQ ID NO: 35); CHOP probe […] (SEQ ID NO: 36); mouse BIP sense primer […] (SEQ I DNO: 31); mouse BIP antisense primer […] (SEQ ID NO: 32); BIP probe […] (SEQ ID NO: 33); mouse caspase 12 sense primer […] (SEQ ID NO: 37); and mouse caspase antisense primer […] (SEQ ID NO: 38).
To determine the effect of INF-γ on the level of phosphorylated eIF-2α and caspase 12 proteins, western blot analysis was performed using the following antibodies anti-eIF-2α (1:500; Santa Cruz), anti-p-eIF-2α (1:1000, Cell signaling Technology), anti-caspase-12 (1:500; Santa Cruz) and anti-actin (1:1000; Sigma, St Louis, Mo.), and according to the following protocol. […]

[2] = DOX− vs DOX+, spinal cord PID50

## IFN-γ: pleotropic cytokine secreted by activated T lymphocytes and natural killer cells; delivered to the CNS by transgene or added as recombinant protein
[1]; DOX− animals, PID50
  number of CC1 positive oligodendrocytes: significantly decreased
[1]; DOX− mice, PID17
  mice that developed hind limb paralysis: 24 of 30
[1]; DOX− mice, PID17, 0-5 scale
  mean maximum clinical score: 2.69±0.69
[1]; DOX− mice, PID50
  clinical score: ~2
  mice continuing to suffer from hind limb paralysis: 12/24
[1]; DOX− vs DOX+
  axonal damage (non-phosphorylated neurofilament-H immunostaining): not affected
[1]; DOX− vs DOX+ mice
  level of MBP in the lumbar spinal cord (immunostaining): notably reduced
[1]; [2]
  expression of IL-17 (real time PCR): decrease
  expression of MHC-1, TNF-a, LL2 and IL-12 (real time PCR): increased
  expression of iNOs and IL-23 (real time PCR): did not alter
[1]; mouse, in vivo
  number of infiltrating T cells and macrophages in the lumbar spinal cord (CD3, CD11b): did not increase significantly
Rat oligodendrocytes; 70 U/ml IFN-γ
  caspase-3 activity in cell lysates: markedly increased
  caspase-12 expression (real-time PCR): induction of caspase-12 was observed
  level of phosphorylated eIF-2α (Western blot): significantly elevated
Rat oligodendrocytes; 70 U/ml IFN-γ for 48 h
  apoptosis (TUNEL and CNP double labeling): induced apoptosis in a significant number of oligodendrocytes
Rat oligodendrocytes; 70 U/ml IFN-γ for 48 h, cells differentiated 5 days
  cell morphology: abnormal morphological changes
Rat oligodendrocytes; after 48 h of IFN-γ treatment
  level of the active fragment of caspase-12 (Western blot): strongly elevated
